According to EP0119428A2, “Biscarboxamides for treating diseases, and process for their preparation” (BAYER AG, priority 1983, dated 1984):

Test system: spontan hypertensiven Ratte
Experiment: Blood pressure lowering in the spontaneously hypertensive rat after oral dosing
Format: in vivo
Conditions: lowest dose that still lowers blood pressure by at least 15 mm Hg, read-out: niederste noch wirksame, orale Dosis
Source text: Die in der folgenden Tabelle angeführten Verbindungen senken an der spontan hypertensiven Ratte den Blutdruck um mindestens 15 mm Hg. Angegeben ist die niederste noch wirksame, orale Dosis.

CC(NC(=O)c1ccccc1C(=O)Nc1ccccc1)C(C)(C)C (stereo not drawn) [Beispiel 12, N-Phenyl-N'-(1,2,2-trimethylpropyl)-phtalamid]
minimal effective dose: 10 mg/kg

CCOc1ccccc1NC(=O)c1ccccc1C(=O)NC(C)C(C)(C)C (stereo not drawn) [Beispiel 13, N-(2-Ethoxyphenyl)-N'-(1,2,2-trimethylpropyl)-phtalamid]
minimal effective dose: 10 mg/kg

CC(NC(=O)c1ccccc1C(=O)Nc1cccnc1)C(C)(C)C (stereo not drawn) [Beispiel 26, N-(3-Pyridyl)-N'-(1,2,2-trimethylpropyl)-phtalamid]
minimal effective dose: 3 mg/kg
